Source: ChEMBL document CHEMBL1201862, “PubChem BioAssay data set” (2004)
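Following 48 hours of exposure in 96-well plates, responses at five concentrations were used to interpolate endpoints linearly. GI50 marks 50% less growth.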 Active and inactive are the calls of the source. No stated cut-off is given here; in the data, active = GI50 up to about 1.1 µM and inactive = higher. Square brackets hold non-standard residues; d marks the D form. Peptide text beside a SMILES is read from it. * marks the point of attachment. ξ: configuration not given here. ξD = NC(CC(=O)O)C(=O)O; Ac3c = NC1(C(=O)O)CC1; Boc = CC(C)(C)OC(=O)*; OtBu = CC(C)(C)O*

How the values were obtained:
Assay in all cases: NCI anticancer screen, dose series, 48 h
NCI/ADR-RES = test system: NCI/ADR-RES
COLO 205 = test system: COLO 205
MDA-MB-231 = test system: MDA-MB-231
HCT-116 = test system: HCT-116
SK-OV-3 = test system: SK-OV-3
SW-620 = test system: SW-620
UO-31 = test system: UO-31
DU-145 = test system: DU-145
MCF7 = test system: MCF7
OVCAR-4 = test system: OVCAR-4
SNB-19 = test system: SNB-19
SF-268 = test system: SF-268
RPMI-8226 = test system: RPMI-8226
HCT-15 = test system: HCT-15
NCI-H522 = test system: NCI-H522
MDA-MB-435 = test system: MDA-MB-435
A498 = test system: A498
MDA-N = test system: MDA-N
OVCAR-8 = test system: OVCAR-8
HL-60 = test system: HL-60

Row | Compound | GI50 (NCI/ADR-RES) | GI50 (COLO 205) | GI50 (MDA-MB-231) | GI50 (HCT-116) | GI50 (SK-OV-3) | GI50 (SW-620) | GI50 (UO-31) | GI50 (DU-145) | GI50 (MCF7) | GI50 (OVCAR-4) | GI50 (SNB-19) | GI50 (SF-268) | GI50 (RPMI-8226) | GI50 (HCT-15) | GI50 (NCI-H522) | GI50 (MDA-MB-435) | GI50 (A498) | GI50 (MDA-N) | GI50 (OVCAR-8) | GI50 (HL-60)
1 | COc1cc(OCc2ccc3oc(=O)c(-c4ccccc4)nc3c2)cc(OC)c1OC | > 100 µM (inactive) | > 100 µM (inactive) | > 100 µM (inactive) | > 100 µM (inactive) | > 100 µM (inactive) | > 100 µM (inactive) | > 100 µM (inactive) | > 100 µM (inactive) | > 100 µM (inactive) | > 100 µM (inactive) | > 100 µM (inactive) | > 100 µM (inactive) | > 100 µM (inactive) | > 100 µM | > 100 µM (inactive) | > 100 µM (inactive) | > 100 µM (inactive) | > 100 µM (inactive) | > 100 µM (inactive) | 
2 | COP(=O)(C(/C=C/c1ccccc1)OC(C)=O)[C@@H]1CCCC[C@H]1N(CC(C)(C)C)C(C)=O (some centres undefined) | 15.1 µM (inactive) | 13.9 µM (inactive) | 14.8 µM (inactive) | 10.9 µM (inactive) | 23.1 µM (inactive) | 16.7 µM (inactive) | 13.9 µM (inactive) | 15 µM (inactive) | 22.5 µM (inactive) | 5.62 µM (inactive) | 29 µM (inactive) | 16.6 µM (inactive) |  | 15.9 µM | 12.1 µM (inactive) | 14.5 µM (inactive) |  | 15.6 µM (inactive) | 16.8 µM (inactive) | 14.6 µM (inactive)
3 | CC[C@H](NC(=O)OC(C)(C)C)C(=O)NCP(=O)(OCc1ccc([N+](=O)[O-])cc1)OCc1ccc([N+](=O)[O-])cc1 | 33.1 µM (inactive) | 16.5 µM (inactive) | 26.4 µM (inactive) | 27.7 µM (inactive) | 21.9 µM (inactive) | 40.6 µM (inactive) | 14.8 µM (inactive) | 31.6 µM (inactive) | 48.9 µM (inactive) | 25.1 µM (inactive) | 43.1 µM (inactive) | 40.6 µM (inactive) | 27.7 µM (inactive) | 26.9 µM | 31.6 µM (inactive) | 34.9 µM (inactive) |  | 28.6 µM (inactive) | 30.5 µM (inactive) | 18.2 µM (inactive)
4 | Cn1c2ccccc2c2c3c(c4c5ccccc5n(C5OC(CO)C(O)C(O)C5O)c4c21)C(=O)OC3=O (centres undefined) | > 100 µM (inactive) | > 100 µM (inactive) | > 100 µM (inactive) | > 100 µM (inactive) | > 100 µM (inactive) | > 100 µM (inactive) | > 100 µM (inactive) | > 100 µM (inactive) | > 100 µM (inactive) | > 100 µM (inactive) | > 100 µM (inactive) | > 100 µM (inactive) | > 100 µM (inactive) | > 100 µM | > 100 µM (inactive) | > 100 µM (inactive) | > 100 µM (inactive) | > 100 µM (inactive) | > 100 µM (inactive) | 
5 | O=c1[nH]nc(Cn2c3ccc(Br)cc3c3nc4ccccc4nc32)n1C1CCCCC1 | > 100 µM (inactive) | 3.9 µM (inactive) | > 100 µM (inactive) | 70.1 µM (inactive) | 87.1 µM (inactive) | 52.7 µM (inactive) | > 100 µM (inactive) | 32 µM (inactive) | 43.7 µM (inactive) | 18.6 µM (inactive) | > 100 µM (inactive) | 40 µM (inactive) | 21.3 µM (inactive) | > 100 µM |  | 28.1 µM (inactive) | 32.3 µM (inactive) | 75.3 µM (inactive) | 12.8 µM (inactive) | 
6 | COc1cc2c(cc1OCc1ccccc1)NC(=S)[C@@H]1CCCN1C2=S | > 100 µM (inactive) | > 100 µM (inactive) | 85.3 µM (inactive) | > 100 µM (inactive) | > 100 µM (inactive) | > 100 µM (inactive) | > 100 µM (inactive) | > 100 µM (inactive) | 95.5 µM (inactive) | 4.09 µM (inactive) | > 100 µM (inactive) | > 100 µM (inactive) | > 100 µM (inactive) | > 100 µM | 71.6 µM (inactive) | > 100 µM (inactive) | > 100 µM (inactive) | > 100 µM (inactive) | 12.3 µM (inactive) | 
7 | NC(Cc1ccccc1)c1nccs1 (centres undefined) | > 100 µM (inactive) | > 100 µM (inactive) | > 100 µM (inactive) | > 100 µM (inactive) | > 100 µM (inactive) | > 100 µM (inactive) | > 100 µM (inactive) | > 100 µM (inactive) | > 100 µM (inactive) | > 100 µM (inactive) | > 100 µM (inactive) | > 100 µM (inactive) | > 100 µM (inactive) | > 100 µM | > 100 µM (inactive) | > 100 µM (inactive) | > 100 µM (inactive) | > 100 µM (inactive) | > 100 µM (inactive) | 
8 | S=C(Nc1ccc(Br)cn1)NC12CC3CC(CC(C3)C1)C2 | 17.4 µM (inactive) | 62.2 µM (inactive) | 17.8 µM (inactive) | 10.7 µM (inactive) | 23.1 µM (inactive) | 49.2 µM (inactive) | 28.3 µM (inactive) | 41.2 µM (inactive) | 26.3 µM (inactive) | 17.1 µM (inactive) | 11 µM (inactive) | 11.4 µM (inactive) | 65.2 µM (inactive) | 68.7 µM | 11.2 µM (inactive) | 92.9 µM (inactive) | 33 µM (inactive) | 15.8 µM (inactive) | 7.57 µM (inactive) | 
9 | CCc1n[nH]c(=O)n1-n1c(C)ccc1C | > 100 µM (inactive) | > 100 µM (inactive) | > 100 µM (inactive) | > 100 µM (inactive) | > 100 µM (inactive) | > 100 µM (inactive) | > 100 µM (inactive) | > 100 µM (inactive) | > 100 µM (inactive) | > 100 µM (inactive) | > 100 µM (inactive) | > 100 µM (inactive) | > 100 µM (inactive) | > 100 µM | > 100 µM (inactive) | > 100 µM (inactive) | > 100 µM (inactive) | > 100 µM (inactive) | > 100 µM (inactive) | 
10 | O=C(c1ccco1)C1CC(c2ccc3ccccc3c2O)=NN1c1ccc([N+](=O)[O-])cc1[N+](=O)[O-] (centres undefined) | 21.1 µM (inactive) | 16.3 µM (inactive) | 20.7 µM (inactive) | 23.1 µM (inactive) | 28.1 µM (inactive) | 34.5 µM (inactive) | 16.6 µM (inactive) | 37.6 µM (inactive) | 12.8 µM (inactive) | 15.6 µM (inactive) |  | 19.4 µM (inactive) |  | 17.9 µM | 7.98 µM (inactive) | 28.9 µM (inactive) | 23.7 µM (inactive) | 28.6 µM (inactive) | 23.8 µM (inactive) | 
11 | COC(=O)Cc1c([C@@H]2Nc3ccccc3[C@H]2CC(=O)OC)[nH]c2ccccc12 | 26.9 µM (inactive) | 16 µM (inactive) | 18.5 µM (inactive) | 38.9 µM (inactive) | 52.4 µM (inactive) | 46.8 µM (inactive) | 16.6 µM (inactive) | 59.4 µM (inactive) | 25.4 µM (inactive) | 23 µM (inactive) | 55.6 µM (inactive) | 31.1 µM (inactive) | 14.9 µM (inactive) | 5.02 µM |  | 26.1 µM (inactive) | 34.7 µM (inactive) | 28.7 µM (inactive) | 33.7 µM (inactive) | 
12 | Cc1ccc(S(=O)(=O)n2cncc2CO)cc1 | > 100 µM (inactive) | > 100 µM (inactive) | > 100 µM (inactive) | > 100 µM (inactive) | > 100 µM (inactive) | > 100 µM (inactive) | > 100 µM (inactive) | > 100 µM (inactive) | > 100 µM (inactive) | > 100 µM (inactive) | > 100 µM (inactive) | > 100 µM (inactive) | > 100 µM (inactive) | > 100 µM | > 100 µM (inactive) | > 100 µM (inactive) |  | > 100 µM (inactive) | > 100 µM (inactive) | > 100 µM (inactive)
13 | CCCSc1cc(Cl)c(C)cc1S(=O)(=O)n1ccnc1O | > 100 µM (inactive) | > 100 µM (inactive) | > 100 µM (inactive) | > 100 µM (inactive) | > 100 µM (inactive) | > 100 µM (inactive) | > 100 µM (inactive) | > 100 µM (inactive) | > 100 µM (inactive) | > 100 µM (inactive) | > 100 µM (inactive) | > 100 µM (inactive) |  | > 100 µM | > 100 µM (inactive) | > 100 µM (inactive) | > 100 µM (inactive) | > 100 µM (inactive) | > 100 µM (inactive) | 
14 | COc1cc(CCC(=O)O)c2cc3ccccc3cc2c1O | 25.6 µM (inactive) | 18 µM (inactive) | 18.9 µM (inactive) | 17.2 µM (inactive) | 67.1 µM (inactive) | 21.4 µM (inactive) | 17.8 µM (inactive) |  | 16.4 µM (inactive) | 15.6 µM (inactive) | 23.5 µM (inactive) | 19.6 µM (inactive) | 12.4 µM (inactive) | 18.2 µM | 20.7 µM (inactive) | 15.3 µM (inactive) | 33.6 µM (inactive) | 17.3 µM (inactive) | 16.3 µM (inactive) | 16.5 µM (inactive)
15 | COC(=O)C1(NC(=O)C(CC(=O)OC(C)(C)C)NC(=O)OC(C)(C)C)CC1 (centres undefined) (Boc-[ξD](OtBu)-[Ac3c]-OMe) | > 100 µM (inactive) | > 100 µM (inactive) | > 100 µM (inactive) | > 100 µM (inactive) | 7.87 µM (inactive) | > 100 µM (inactive) | > 100 µM (inactive) | > 100 µM (inactive) | > 100 µM (inactive) | > 100 µM (inactive) | > 100 µM (inactive) | > 100 µM (inactive) | > 100 µM (inactive) | > 100 µM | > 100 µM (inactive) | > 100 µM (inactive) | > 100 µM (inactive) | > 100 µM (inactive) | > 100 µM (inactive) | 
